The results in this text go back to US7230002B2, “Dipeptidyl peptidase IV inhibitors; processes for their preparation and compositions thereof” (Glenmark Pharmaceuticals Ltd., priority 2004, dated 2007).

Counter-ions that a name gives are not always drawn.

In the test the target is T1, human recombinant Dipeptidyl peptidase IV enzyme (Homo sapiens, UniProt P27487).
T1 construct: purchased R & D Systems
T1 sequence (P27487 whole entry): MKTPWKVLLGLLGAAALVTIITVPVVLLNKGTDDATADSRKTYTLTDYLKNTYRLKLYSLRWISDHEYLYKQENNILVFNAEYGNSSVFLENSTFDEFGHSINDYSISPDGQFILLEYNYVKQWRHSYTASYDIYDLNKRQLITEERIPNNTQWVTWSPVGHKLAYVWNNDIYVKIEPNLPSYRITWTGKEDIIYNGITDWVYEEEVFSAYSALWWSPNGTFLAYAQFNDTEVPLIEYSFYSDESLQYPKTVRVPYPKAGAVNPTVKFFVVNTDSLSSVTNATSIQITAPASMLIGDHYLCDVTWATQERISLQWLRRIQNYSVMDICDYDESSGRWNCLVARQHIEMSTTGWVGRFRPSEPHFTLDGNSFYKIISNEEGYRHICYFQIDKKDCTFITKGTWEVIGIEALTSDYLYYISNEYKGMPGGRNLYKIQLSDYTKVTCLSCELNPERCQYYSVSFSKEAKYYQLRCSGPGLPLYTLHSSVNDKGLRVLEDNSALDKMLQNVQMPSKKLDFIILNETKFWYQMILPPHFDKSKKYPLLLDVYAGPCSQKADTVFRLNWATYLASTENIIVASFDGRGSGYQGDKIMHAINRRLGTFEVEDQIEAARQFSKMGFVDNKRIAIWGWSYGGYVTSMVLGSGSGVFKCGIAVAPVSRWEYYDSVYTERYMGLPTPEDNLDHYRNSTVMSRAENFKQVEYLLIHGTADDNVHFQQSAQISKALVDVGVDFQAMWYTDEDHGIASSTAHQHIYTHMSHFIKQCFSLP
Nature of the test: In-vitro DPP-IV assay (cleavage of Gly-Pro-AMC). Format: biochemical. The following applies: n = 3, substrate Gly-Pro-AMC, 30° C., 30 minutes, read-out: DPP-IV inhibition IC50. How it is done: Protocol for In-Vitro DPP-IV Assay
DPPIV activity was determined by the cleavage rate of 7-amino-4-methyl coumarin (AMC) from synthetic substrate Glycyl-Prolyl-AMC. In brief, the assay was conducted by adding 10 ng of human recombinant Dipeptidyl peptidase IV enzyme (DPPIV, available commercially from R & D Systems) in 50 μl of the assay buffer (25 mM Tris, pH 7.4, 140 mM NaCl, 10 mM KCl, 1% BSA) to 96 well black flat bottom microtiter plates. The reaction was initiated by adding 50 μl of 100 μM substrate Gly-Pro-AMC. The incubation was carried out in the kinetic mode at 30° C. for 30 minutes. Fluorescence was measured using Fluorostar at excitation filter of 380 nm and emission filter of 460 nm). Test compounds and solvent controls were added as 1 μl additions. A standard curve of free amino methyl coumarin (AMC) was generated using 0–100 μM AMC in the assay buffer. The curve generated, which was linear was used for the interpolation of catalytic activity.
Test compounds dissolved in DMSO at 5–6 concentrations were tested in duplicate along with the solvent control and blank samples. Percent inhibition was calculated at each concentration with respect to the solvent control sample (no test compound added). IC50 values were calculated from 3 experiments using the prism software.
Take `N#Cc1ccc(NC[C@@H]2CC[C@H](NCC(=O)N3CCC[C@H]3C#N)C2)nc1` [Example-11, 6-((1R,3S)-3-{2-[(2S)-2-Cyanopyrrolidin-1-yl]-2-oxoethylamino}cyclopentylmethyl-amino)nicotinonitrile dihydrochloride]: the IC50 (in general, the concentration needed to halve the response being measured) came out at 13.9 nM.
The result for `N#Cc1ccc(NC[C@H]2CC[C@@H](NCC(=O)N3C[C@@H](F)C[C@H]3C#N)C2)nc1` [Example-15, 6-((1S,3R)-3-{2-[(2S,4S)-2-Cyano-4-fluoropyrrolidin-1-yl]-2-oxoethylamino}cyclo-pentylmethylamino)nicotinonitrile] reads 3.17 nM.
Turning to `N#C[C@@H]1CCCN1C(=O)CN[C@@H]1CC[C@H](CNc2ncccn2)C1` [Example-20, (2S)-1-{2-[(3S,1R)-3-(2-Pyrimidinylaminomethyl)cyclopentylamino)acetyl}-pyrrolidine-2-carbonitrile], the IC50 came out at 41.3 nM.
For `N#C[C@@H]1CCCN1C(=O)CN[C@H]1CC[C@@H](CNc2ncccn2)C1` [Example-21], the IC50 stood at 6.74 nM.
As to `N#C[C@@H]1CCCN1C(=O)CN[C@@H]1CC[C@H](CNc2nnnn2-c2ccccc2)C1` [Example-22, (2S)-1-{2-[(3S,1R)-3-(1-Phenyl-1H-1,2,3,4-tetraazol-5-ylaminomethyl)cyclopentyl-amino]acetyl}-pyrrolidine-2-carbonitrile], the IC50 amounted to 10.4 nM.
As to `N#C[C@@H]1CCCN1C(=O)CN[C@@H]1CC[C@H](CNc2ccc([N+](=O)[O-])cc2F)C1` [Example-25, (2S)-1-{2-[(1R,3S)-3-(2-Fluoro-4-nitroanilinmethyl)cyclopentylamino]acetyl}-pyrrolidine-2-carbonitrile], the IC50 turned out to be 8.59 nM.
As for `N#C[C@@H]1C[C@H](F)CN1C(=O)CN[C@@H]1CC[C@H](CNc2ccc([N+](=O)[O-])cc2F)C1` [Example-26], the half-maximal inhibitory concentration (IC50) came out at 5.16 nM.
Consider `N#C[C@@H]1CCCN1C(=O)CN[C@@H]1CC[C@H](CSc2ccccc2)C1` [Example-30, (2S)-1-{2-[(3S,1R)-3-Phenylsulfanylmethylcycopentylamino]acetytl}-pyrrolidine-2-carbonitrile], for which the IC50 was 63.4 nM.
In the case of `N#C[C@@H]1CCCN1C(=O)CN[C@@H]1CC[C@H](CS(=O)(=O)c2ccccc2)C1` [Example-31, (2S)-1-{2-[(3S,1R)-3-Phenylsulfonylmethylcyclopentylamino]acetytl}-pyrrolidine-2-carbonitrile], the IC50 worked out at 91.8 nM.
The result for `N#C[C@@H]1CCCN1C(=O)CN[C@H]1CC[C@@H](CSc2ccccc2)C1` [Example-32, (2S)-1-{2-[(1S,3R)-3-Phenylsulfanylmethylcycopentylamino]acetyl}-pyrrolidine-2-carbonitrile] reads 37 nM.
Then `N#C[C@@H]1CCCN1C(=O)CN[C@H]1CC[C@@H](CS(=O)(=O)c2ccccc2)C1` [Example-33, (2S)-1-{2-[(1S,3R)-3-Phenylsulfonylmethylcyclopentylamino]acetyl}-pyrrolidine-2-carbonitrile], with 57.3 nM.
In the case of `N#C[C@@H]1CCCN1C(=O)CN[C@H]1CC[C@@H](CSc2ccc(F)cc2)C1` [Example-34, (2S)-1-{2-[(1S,3R)-3-(4-Fluorophenylsulfanylmethyl)cyclopentylamino]acetyl}-pyrro-lidine-2-carbonitrile], the IC50 was 26.1 nM.
Take `N#C[C@@H]1CCCN1C(=O)CN[C@H]1C=C[C@@H](CSc2ccccn2)C1` [Example-35, (2S)-1-{2-[(4S,1R)-4-(2-Pyridylsulfanylmethyl)cyclopent-2-enealino]acetyl}-pyrrolidine-2-carbonitrile]: the IC50 amounted to 70.9 nM.
Turning to `N#C[C@@H]1CCCN1C(=O)CN[C@H]1CC[C@@H](CSc2ccccn2)C1` [Example-36, (2S)-1-{2-[(1S,3R)-3-(2-Pyridylsulfanylmethyl)cyclopentylamino]acetyl}-pyrrolidine-2-carbonitrile], the IC50 was 10.6 nM.
